Laboratory results published in ChEMBL document CHEMBL1201861, “Genomics of Drug Sensitity in Cancer screening data, Wellcome Trust Sanger Institute”.

Legend:
Test in all cases: cells
Assay type in all cases: functional, cell-based
Details in all cases: Homo sapiens
[1] = tested on: HCC 2998;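 further: growth inhibition of human HCC2998 cells, measured with a cell viability read-out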
Description: SANGER: Inhibition of human HCC2998 cell growth in a cell viability assay.

[2] = tested on: AN3-CA;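 further: growth inhibition of human AN3-CA cells measured by a cell viability assay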
Description: SANGER: Inhibition of human AN3-CA cell growth in a cell viability assay.

[3] = tested on: NY
Description: SANGER: Inhibition of human NY cell growth in a cell viability assay.

[4] = tested on: SNU-423
Description: SANGER: Inhibition of human SNU-423 cell growth in a cell viability assay.

[5] = tested on: UACC-62;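 further: growth inhibition of human UACC-62 cells, read out by a cell viability assay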
Description: SANGER: Inhibition of human UACC-62 cell growth in a cell viability assay.

[6] = tested on: M059J;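 further: growth inhibition of M059J cells, read out with a cell viability assay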
Description: SANGER: Inhibition of human M059J cell growth in a cell viability assay.

[7] = tested on: SKG-IIIa;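 further: cell growth inhibition, read out with a cell viability assay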
Description: SANGER: Inhibition of human SKG-IIIa cell growth in a cell viability assay.

[8] = tested on: NCI-H661;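 further: cell viability assay read-out, IC50 being the concentration that inhibits growth of the cells by half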
Description: SANGER: Inhibition of human NCI-H661 cell growth in a cell viability assay.

[9] = tested on: NCI-H460;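 further: cell viability assay scoring growth inhibition of human NCI-H460 cells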
Description: SANGER: Inhibition of human NCI-H460 cell growth in a cell viability assay.

[10] = tested on: KOSC-2;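 further: growth inhibition of KOSC-2 cells, read out by a cell viability assay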
Description: SANGER: Inhibition of human KOSC-2 cell growth in a cell viability assay.

[11] = tested on: C3A;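 further: growth inhibition of C3A human cells, quantified with a cell viability readout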
Description: SANGER: Inhibition of human C3A cell growth in a cell viability assay.

[12] = tested on: JEG-3;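 further: growth inhibition of human JEG-3 cells, read out with a cell viability assay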
Description: SANGER: Inhibition of human JEG-3 cell growth in a cell viability assay.

[13] = tested on: SW1710;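 further: growth inhibition of SW1710 cells, determined with a cell viability assay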
Description: SANGER: Inhibition of human SW1710 cell growth in a cell viability assay.

[14] = tested on: MDA-MB-231
Description: SANGER: Inhibition of human MDA-MB-231 cell growth in a cell viability assay.

[15] = tested on: UO-31;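 further: cell viability assay measuring inhibition of cell growth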
Description: SANGER: Inhibition of human U031 cell growth in a cell viability assay.

[16] = tested on: HEC-1;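 further: growth inhibition of the cell line, read out with a cell viability assay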
Description: SANGER: Inhibition of human HEC-1 cell growth in a cell viability assay.

[17] = tested on: TCC-SUP;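 further: growth inhibition of TCC-SUP cells, read out with a cell viability assay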
Description: SANGER: Inhibition of human TCCSUP cell growth in a cell viability assay.

[18] = tested on: NCI-H1993;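 further: growth inhibition of the cancer cell line, assessed with a cell viability assay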
Description: SANGER: Inhibition of human NCI-H1993 cell growth in a cell viability assay.

[19] = tested on: CAL-27;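 further: Viability-based readout, IC50 reflecting inhibition of CAL-27 cell growth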
Description: SANGER: Inhibition of human CAL-27 cell growth in a cell viability assay.

[20] = tested on: WM-115
Description: SANGER: Inhibition of human WM-115 cell growth in a cell viability assay.

[21] = tested on: Huh-7;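 further: HuH-7 cell growth inhibition, read out with a cell viability assay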
Description: SANGER: Inhibition of human HuH-7 cell growth in a cell viability assay.

[22] = tested on: COLO-680N;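 further: cell viability assay used to measure inhibition of COLO-680N cell growth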
Description: SANGER: Inhibition of human COLO-680N cell growth in a cell viability assay.

[23] = tested on: RT-112
Description: SANGER: Inhibition of human RT-112 cell growth in a cell viability assay.

[24] = tested on: NCI-H650;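 further: growth inhibition of NCI-H650 cells, read out by a viability assay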
Description: SANGER: Inhibition of human NCI-H650 cell growth in a cell viability assay.

[25] = tested on: NCI-H1623;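 further: cell viability assay used as the read-out for growth inhibition of NCI-H1623 cells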
Description: SANGER: Inhibition of human NCI-H1623 cell growth in a cell viability assay.

[26] = tested on: HCC1569;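 further: growth inhibition of human HCC1569 cells, read out with a cell viability assay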
Description: SANGER: Inhibition of human HCC1569 cell growth in a cell viability assay.

[27] = tested on: BXPC-3;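 further: growth inhibition of human BxPC-3 cells, read out by a cell viability assay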
Description: SANGER: Inhibition of human BxPC-3 cell growth in a cell viability assay.

[28] = tested on: SK-MEL-30;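 further: growth inhibition of SK-MEL-30 cells, determined with a cell viability assay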
Description: SANGER: Inhibition of human SK-MEL-30 cell growth in a cell viability assay.

[29] = tested on: ME-180;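 further: cell viability assay measuring growth inhibition of ME-180 cells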
Description: SANGER: Inhibition of human ME-180 cell growth in a cell viability assay.

[30] = tested on: HuO9;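 further: growth inhibition of HuO9 cells, read out with a cell viability assay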
Description: SANGER: Inhibition of human HuO9 cell growth in a cell viability assay.

[31] = tested on: YKG-1;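 further: cell growth inhibition, read out with a viability assay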
Description: SANGER: Inhibition of human YKG-1 cell growth in a cell viability assay.

[32] = tested on: NB12;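 further: growth inhibition of human NB12 cells, read out by a cell viability assay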
Description: SANGER: Inhibition of human NB12 cell growth in a cell viability assay.

[33] = tested on: HT-29;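 further: growth inhibition of human HT-29 cells, read out by a cell viability assay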
Description: SANGER: Inhibition of human HT-29 cell growth in a cell viability assay.

[34] = tested on: KYSE-410;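 further: growth inhibition of KYSE-410 cells, measured through a cell viability readout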
Description: SANGER: Inhibition of human KYSE-410 cell growth in a cell viability assay.

[35] = tested on: BHT-101
Description: SANGER: Inhibition of human BHT-101 cell growth in a cell viability assay.

[36] = tested on: UACC-893
Description: SANGER: Inhibition of human UACC-893 cell growth in a cell viability assay.

[37] = tested on: Panc1005;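 further: growth inhibition of human PANC-10-05 cells, measured by a cell viability assay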
Description: SANGER: Inhibition of human PANC-10-05 cell growth in a cell viability assay.

[38] = tested on: T-24;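 further: growth inhibition of T-24 cells, read out with a cell viability assay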
Description: SANGER: Inhibition of human T-24 cell growth in a cell viability assay.

[39] = tested on: HT55;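 further: cell viability readout measuring growth inhibition of human HT55 cells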
Description: SANGER: Inhibition of human HT55 cell growth in a cell viability assay.

[40] = tested on: SW756;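 further: growth inhibition of human SW756 cells, read out with a cell viability assay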
Description: SANGER: Inhibition of human SW756 cell growth in a cell viability assay.

[41] = tested on: MDA-MB-415
[42] = tested on: Hs-578T
Description: SANGER: Inhibition of human Hs-578-T cell growth in a cell viability assay.

[43] = tested on: CP66-MEL;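 further: growth inhibition of CP66-MEL cells determined in a cell viability assay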
Description: SANGER: Inhibition of human CP66-MEL cell growth in a cell viability assay.

Measured: IC50

O=C1NC(=O)c2c1c(-c1ccccc1Cl)cc1[nH]c3ccc(O)cc3c21
1.56 µM: [34]
1.96 µM: [30]
not listed: [40] | [41] | [42] | [43]
> 2 µM: all other assays above

O=C(NCCCNc1nc(Nc2cccc(NC(=O)N3CCCC3)c2)ncc1I)c1cccs1 [BX-795]
4.09 µM: [16]
2.29 µM: [13]
3.39 µM: [29]
3.91 µM: [4]
2.56 µM: [30]
4.01 µM: [23]
1.77 µM: [31]
2.44 µM: [9]
1.64 µM: [2]
3.4 µM: [24]
3.88 µM: [20]
2.42 µM: [42]
1.38 µM: [6]
4.82 µM: [21]
1.58 µM: [35]
3.07 µM: [10]
not listed: [43]
> 5 µM: all other assays above

Cc1ccc(-n2nc(C(C)(C)C)cc2NC(=O)Nc2ccc(OCCN3CCOCC3)c3ccccc23)cc1 [DORAMAPIMOD]
8.41 µM: [38]
> 10 µM: all other assays above
